What all share (assay type): cell-based
Experiment [1] relates to E. faecalis ATCC 29212 (NB04001). As to the kind of experiment: MIC by broth microdilution, E. faecalis NB04001. The note with it: Enterococcus faecalis, ATCC29212, CAMHB, 35° C., 20 hours, read-out: Antibacterial activity (MIC) NB04001. The procedure:
(§1) Bacterial isolates were cultivated from −80° C. frozen stocks by overnight passages at 35° C. in ambient air on Mueller-Hinton agar plates (MHA, Becton Dickinson, Franklin Lakes, NB) with the exception of S. pneumoniae which was grown overnight at 35° C. in the presence of 5% CO2 on blood agar plates (tryptic soy agar with 5% sheep blood (Thermo Scientific, Waltham, Mass.) . The following quality control and wild type strains were obtained from the American Type Culture Collection (ATCC; Rockville, Md.) and are coded in the Novartis strain collection as indicated: E. coli ATCC 25922 (NB27001), E. faecalis ATCC 29212 (NB04001), S. aureus ATCC 49951 (NB01006) and S. pneumoniae ATCC […] (NB07001). […] P. aeruginosa NB52019, obtained from Queen's University (Kingston, Ontario, Canada), is the wild-type PAO1 strain.
(§2) Minimal Inhibitory Concentrations (MIC) were determined by the broth microdilution method in accordance with Clinical and Laboratories Institute (CLSI) guidelines. In brief, fresh bacterial overnight cultures were re-suspended in sterile saline, adjusted to a 0.5 McFarland turbidity standard and then diluted to yield a final inoculum of approximately 5×10^5 colony-forming units (CFU)/mL. All bacterial suspensions were prepared in cation adjusted Mueller-Hinton Broth (CAMHB; Becton Dickinson, Franklin Lakes, N.J.;) with the exception of S. pneumoniae which was prepared in CAMHB supplemented with 5% lysed horse blood (Hardy Diagnostics, Santa Maria, Calif.). Two-fold serial dilutions of compounds were prepared in 100% dimethyl sulfoxide (DMSO) at 100-fold the highest final assay concentration; the resulting dilution series of compounds were diluted 1:10 with sterile water. Ten μL of the drug dilution series in 10% DMSO was transferred to microtiter wells and 90 μL of bacterial suspension was inoculated into the wells. All inoculated microdilution trays were incubated in ambient air at 35° C. for 20 hours. Following incubation, assay plates were read in a microtiter plate reader at 600 nm and visually inspected to confirm the MIC endpoint well with the OD value. The lowest concentration of the compound that prevented visible growth was recorded as the MIC (in μg/mL).
(In general: In broth dilution the organism is exposed to a series of concentrations in liquid medium.)

Experiment [2] relates to S. pneumoniae ATCC 25922 (NB07001). Put plainly: MIC by broth microdilution, S. pneumoniae NB07001. The note with it: Streptococcus pneumoniae, read-out: Antibacterial activity (MIC) NB07001. The procedure:
as §1, §2

For experiment [3], the system named is P. aeruginosa NB52019, wild-type PAO1 strain. Put plainly: MIC by broth microdilution, P. aeruginosa NB52019. The note with it: Pseudomonas aeruginosa, CAMHB, 35° C., 20 hours, read-out: Antibacterial activity (MIC) NB52019. The procedure: as §1, §2
Experiment [4] has as its system S. aureus NB01006-AVR005, gyrA (S84L), grlA (580F) and grlB (E471K). Put plainly: microbe, parasite or virus in culture. The note with it: Staphylococcus aureus, 20 h, read-out: Antibacterial activity (MIC) NB01006-AVR005. The procedure:
as §1, §2

Experiment [5] deals with S. aureus ATCC 49951 (NB01006). As to the kind of experiment: MIC by broth microdilution, S. aureus NB01006. The note with it: Staphylococcus aureus, ATCC49951, CAMHB, 35° C., 20 hours, read-out: Antibacterial activity (MIC) NB01006. The procedure:
as §1, §2

Experiment [6] relates to E. coli ATCC 25922 (NB27001). As to the kind of experiment: MIC by broth microdilution, E. coli NB27001. The note with it: Escherichia coli, ATCC25922, CAMHB, 35° C., 20 hours, read-out: Antibacterial activity (MIC) NB27001. The procedure: as §1, §2
The subject of experiment [7] is S. aureus NB01080 fluoroquinolone-resistant clinical isolate. As to the kind of experiment: MIC by broth microdilution, S. aureus NB01080. The note with it: Staphylococcus aureus, CAMHB, 35° C., 20 hours, read-out: Antibacterial activity (MIC) NB01080. The procedure:
as §1, §2

Setting [8] is: ATCC25922, S. pneumoniae, CAMHB supplemented with 5% lysed horse blood, 35° C., 20 hours.

≈ marks a conversion by molar mass, not a printed value. Where two headings read alike, the source gives them in different places.

In the case of `C[C@H]1COc2c(N3CC(N)C(CO)C3)c(F)cc3cc(C(=O)O)c(=O)n1c23` (single isomer, unassigned) [Example 1.77], the MIC in experiment [1] was above 32 µg/mL; in experiment [2] (ATCC25922, 20 h), 1 to 32 µg/mL (≈ 2.65 to 84.8 µM); in experiment [3] it was above 32 µg/mL; in experiment [4], above 32 µg/mL; in experiment [5] it was 1 to 32 µg/mL (≈ 2.65 to 84.8 µM); in experiment [6], above 32 µg/mL. Also, the MIC in experiment [7] was above 32 µg/mL.
On to `C[C@H]1COc2c(N3CC(CO)C(N(C)C)C3)c(F)cc3cc(C(=O)O)c(=O)n1c23` (single isomer, unassigned) [Example 1.78], for which the MIC in experiment [1] was above 32 µg/mL; in experiment [2] (ATCC25922, 20 h), 1 to 32 µg/mL (≈ 2.47 to 78.9 µM); in experiment [3], above 32 µg/mL; in experiment [4], above 32 µg/mL; in experiment [5], 1 to 32 µg/mL (≈ 2.47 to 78.9 µM); in experiment [6] it was 1 to 32 µg/mL (≈ 2.47 to 78.9 µM). In experiment [7], the MIC was above 32 µg/mL.
Consider `CC1CCc2c(N3CC[C@@H](C4(N)CC4)C3)c(F)cc3cc(C(=O)O)c(=O)n1c23.O=C(O)C(F)(F)F` (single isomer, unassigned) [Example 8], for which the MIC in experiment [1] is below 1 µg/mL; in experiment [2] (setting [8]), below 1 µg/mL; in experiment [3], 1 to 32 µg/mL; in experiment [4], below 1 µg/mL; in experiment [5], below 1 µg/mL; in experiment [6], 1 to 32 µg/mL. Further, the MIC in experiment [7] is below 1 µg/mL.
Turning to `CC1Cc2c(N3CC[C@@H](C4(N)CC4)C3)c(F)cc3cc(C(=O)O)c(=O)n1c23.Cl` (single isomer, unassigned) [Example 9.1], the MIC was below 1 µg/mL in experiment [1]; below 1 µg/mL in experiment [2] (setting [8]); above 32 µg/mL in experiment [3]; 1 to 32 µg/mL in experiment [4]; below 1 µg/mL in experiment [5]; 1 to 32 µg/mL in experiment [6]. The MIC in experiment [7] is below 1 µg/mL.
With `C[C@H]1COc2c(N3CCC4(CC4N)C3)c(F)c(F)c3cc(C(=O)O)c(=O)n1c23` (single isomer, unassigned) [Example 13.4], the MIC in experiment [1] is below 1 µg/mL; in experiment [2] (ATCC25922, 20 h) it was below 1 µg/mL; in experiment [3], 1 to 32 µg/mL (≈ 2.56 to 81.8 µM); in experiment [4], 1 to 32 µg/mL (≈ 2.56 to 81.8 µM); in experiment [5], below 1 µg/mL; in experiment [6], below 1 µg/mL. In addition, the MIC in experiment [7] lay in the range of 1 to 32 µg/mL (≈ 2.56 to 81.8 µM).
In the case of `C[C@H]1COc2c(N3CC4CC4(N)C3)c(F)c(F)c3cc(C(=O)O)c(=O)n1c23` (single isomer, unassigned) [Example 13.6], the MIC is below 1 µg/mL in experiment [1]; below 1 µg/mL in experiment [2] (ATCC25922, 20 h); above 32 µg/mL in experiment [3]; 1 to 32 µg/mL (≈ 2.65 to 84.8 µM) in experiment [4]; below 1 µg/mL in experiment [5]; 1 to 32 µg/mL (≈ 2.65 to 84.8 µM) in experiment [6]. The MIC in experiment [7] was below 1 µg/mL.
For the molecule `C[C@H]1COc2c(N3CC4C(N)C4C3)c(F)c(F)c3cc(C(=O)O)c(=O)n1c23` (single isomer, unassigned) [Example 13.7], the MIC in experiment [1] is below 1 µg/mL; in experiment [2] (ATCC25922, 20 h), below 1 µg/mL; in experiment [3], 1 to 32 µg/mL (≈ 2.65 to 84.8 µM); in experiment [4], 1 to 32 µg/mL (≈ 2.65 to 84.8 µM); in experiment [5], below 1 µg/mL; in experiment [6], below 1 µg/mL. In addition, the MIC in experiment [7] was in the range of 1 to 32 µg/mL (≈ 2.65 to 84.8 µM).
Regarding `C[C@H]1COc2c(N3CC[C@@H](C4(N)CC4)C3)c(F)cc3cc(C(=O)O)c(=O)n1c23.Cl` [Example 1.1, (S)-10-((R)-3-(1-aminocyclopropyl)pyrrolidin-1-yl)-9-fluoro-3-methyl-5-oxo-2,3-dihydro-5H-[1,4]oxazino[2,3,4-ij]quinoline-6-carboxylic acid hydrochloride salt], the MIC in experiment [1] is below 1 µg/mL; in experiment [2] (setting [8]) it was below 1 µg/mL; in experiment [3], above 32 µg/mL; in experiment [4] it was 1 to 32 µg/mL; in experiment [5], below 1 µg/mL; in experiment [6], 1 to 32 µg/mL. Also, the MIC in experiment [7] was below 1 µg/mL.
In the case of `C[C@H]1COc2c(N3CC[C@H](N)C3)c(F)cc3cc(C(=O)O)c(=O)n1c23` [Example 1.2, (S)-10-((S)-3-aminopyrrolidin-1-yl)-9-fluoro-3-methyl-5-oxo-2,3-dihydro-5H-[1,4]oxazino[2,3,4-ij]quinoline-6-carboxylic acid], the MIC in experiment [1] was 1 to 32 µg/mL (≈ 2.88 to 92.1 µM); in experiment [2] (ATCC25922, 20 h), 1 to 32 µg/mL (≈ 2.88 to 92.1 µM); in experiment [3] it was 1 to 32 µg/mL (≈ 2.88 to 92.1 µM); in experiment [4], above 32 µg/mL; in experiment [5], 1 to 32 µg/mL (≈ 2.88 to 92.1 µM); in experiment [6], 1 to 32 µg/mL (≈ 2.88 to 92.1 µM). Moreover, the MIC in experiment [7] is above 32 µg/mL.
